In publication PMC11672299, “Conjugation of Polycationic Peptides Extends the Efficacy Spectrum of β‐Lactam Antibiotics” (Advanced Science, 2024):
Square brackets hold non-standard residues; d marks the D form. Peptide text beside a SMILES is read from it. * marks the point of attachment. X1 = CC(C)(O/N=C(\C(=O)N[C@@H]1C(=O)N2C(C(=O)[O-])=C(C[n+]3ccccc3)CS[C@H]12)c1csc(N)n1)C(=O)NCCCCCCN1C(=O)CC(*)C1=O; X2 = C[C@H]1[C@H](NC(=O)/C(=N\OC(C)(C)C(=O)NCCCCCCN2C(=O)CC(*)C2=O)c2csc(N)n2)C(=O)N1S(=O)(=O)O

test system: B. subtilis DSM 10; experiment: microbe, parasite or virus in culture; type: cell-based; settings: B. subtilis DSM 10; median (n = 3)
Description: The minimum inhibitory concentration (MIC) of the β‐lactam–peptide conjugates was determined by broth microdilution as previously described.^[ [17] ^] Briefly, in cation‐adjusted MHB II medium, a twofold serial dilution of the compounds was prepared in 96‐well round‐bottom polystyrene or polypropylene microtiter plates with each well containing 50 µL. The plates were inoculated with 50 µL bacterial suspension and the final inoculum, in a total volume of 100 µL, contained 5 × 10^5 CFU mL^−1. The microplates were incubated for 20 h at 37 ± 1 °C. The lowest concentration preventing visible bacterial growth was considered the MIC value. For susceptibility testing of combinations of β‐lactamase‐inhibitors with either a β‐lactam antibiotic or a β‐lactam–peptide conjugate, fixed concentrations of the inhibitors according to the EUCAST (European Committee on Antimicrobial Susceptibility Testing) guidelines (clavulanic acid = 2 mg L^−1, avibactam = 4 mg L^−1) were used.

Compound | MIC [µg/mL]
C[C@H]1[C@H](NC(=O)/C(=N\OC(C)(C)C(=O)NCCCCCCN2C(=O)CC(SC[C@H](NC(=O)[C@H](CCCNC(=N)N)NC(=O)[C@H](CCCNC(=N)N)NC(=O)[C@H](CCCNC(=N)N)NC(=O)[C@H](CCCNC(=N)N)NC(=O)[C@H](CCCNC(=N)N)NC(=O)[C@H](CCCNC(=N)N)NC(=O)[C@H](N)Cc3ccc(O)cc3)C(N)=O)C2=O)c2csc(N)n2)C(=O)N1S(=O)(=O)O (some centres unmarked) [AZT-yR6] (H-[dY]RRRRRRC(X2)-NH2; N-terminus assumed) | 1

same assay, conditions: DSM 10, 20 h

Compound | MIC [µg/mL]
CC1(C)S[C@@H]2[C@H](NC(=O)[C@H](NC(=O)C3CCC(CN4C(=O)CC(SC[C@H](NC(=O)[C@H](CCCNC(=N)N)NC(=O)[C@H](CCCNC(=N)N)NC(=O)[C@H](CCCNC(=N)N)NC(=O)[C@H](CCCNC(=N)N)NC(=O)[C@H](CCCNC(=N)N)NC(=O)[C@@H](N)CCCNC(=N)N)C(N)=O)C4=O)CC3)c3ccc(O)cc3)C(=O)N2[C@H]1C(=O)O (some centres unmarked) [AMO-R6] | 0.06
C[C@H]1[C@H](NC(=O)/C(=N\OC(C)(C)C(=O)NCCCCCCN2C(=O)CC(SC[C@H](NC(=O)[C@H](CCCCN)NC(=O)[C@H](CCCCN)NC(=O)[C@@H](N)CCCCN)C(N)=O)C2=O)c2csc(N)n2)C(=O)N1S(=O)(=O)O (some centres unmarked) [AZT-K3] | 8
CC(C)(O/N=C(\C(=O)N[C@@H]1C(=O)N2C(C(=O)[O-])=C(C[n+]3ccccc3)CS[C@H]12)c1csc(N)n1)C(=O)NCCCCCCN1C(=O)CC(SC[C@H](NC(=O)[C@@H](N)CCCNC(=N)N)C(N)=O)C1=O (some centres unmarked) [CTZ-R1] | 1
CC(C)(O/N=C(\C(=O)N[C@@H]1C(=O)N2C(C(=O)[O-])=C(C[n+]3ccccc3)CS[C@H]12)c1csc(N)n1)C(=O)NCCCCCCN1C(=O)CC(SC[C@H](NC(=O)[C@H](CCCNC(=N)N)NC(=O)[C@H](CCCNC(=N)N)NC(=O)[C@@H](N)CCCNC(=N)N)C(N)=O)C1=O (some centres unmarked) [CTZ-R3] | 0.06
C[C@H]1[C@H](NC(=O)/C(=N\OC(C)(C)C(=O)NCCCCCCN2C(=O)CC(SC[C@H](NC(=O)[C@H](CCCNC(=N)N)NC(=O)[C@H](CCCCN)NC(=O)[C@H](CCCNC(=N)N)NC(=O)[C@H](CCCCN)NC(=O)[C@H](CCCNC(=N)N)NC(=O)[C@@H](N)CCCCN)C(N)=O)C2=O)c2csc(N)n2)C(=O)N1S(=O)(=O)O (some centres unmarked) [AZT-(KR)3] (H-KRKRKRC(X2)-NH2; N-terminus assumed) | 0.06
CC(C)(O/N=C(\C(=O)N[C@@H]1C(=O)N2C(C(=O)[O-])=C(C[n+]3ccccc3)CS[C@H]12)c1csc(N)n1)C(=O)NCCCCCCN1C(=O)CC(SC[C@H](NC(=O)[C@H](CCCNC(=N)N)NC(=O)[C@H](CCCCN)NC(=O)[C@H](CCCNC(=N)N)NC(=O)[C@H](CCCCN)NC(=O)[C@H](CCCNC(=N)N)NC(=O)[C@@H](N)CCCCN)C(N)=O)C1=O (some centres unmarked) [CTZ-(KR)3] (H-KRKRKRC(X1)-NH2; N-terminus assumed) | 0.008
C[C@H]1[C@H](NC(=O)/C(=N\OC(C)(C)C(=O)NCCCCCCN2C(=O)CC(SC[C@H](NC(=O)CNC(=O)CNC(=O)CNC(=O)CNC(=O)CNC(=O)CN)C(N)=O)C2=O)c2csc(N)n2)C(=O)N1S(=O)(=O)O (some centres unmarked) [AZT-G6] (H-GGGGGGC(X2)-NH2; N-terminus assumed) | 64
C[C@H]1[C@H](NC(=O)/C(=N\OC(C)(C)C(=O)NCCCCCCN2C(=O)CC(SC[C@H](NC(=O)[C@H](CCC(=O)O)NC(=O)[C@H](CCC(=O)O)NC(=O)[C@H](CCC(=O)O)NC(=O)[C@H](CCC(=O)O)NC(=O)[C@H](CCC(=O)O)NC(=O)[C@@H](N)CCC(=O)O)C(N)=O)C2=O)c2csc(N)n2)C(=O)N1S(=O)(=O)O (some centres unmarked) [AZT-E6] | > 64
C[C@H]1[C@H](NC(=O)/C(=N\OC(C)(C)C(=O)NCCCCCCN2C(=O)CC(SC[C@H](NC(=O)[C@H](CCCCN)NC(=O)[C@H](CCCCN)NC(=O)[C@H](CCCCN)NC(=O)[C@H](CCCCN)NC(=O)[C@H](CCCCN)NC(=O)[C@H](CCCCN)NC(=O)[C@H](CCCCN)NC(=O)[C@H](CCCCN)NC(=O)[C@H](CCCCN)NC(=O)[C@H](CCCCN)NC(=O)[C@H](CCCCN)NC(=O)[C@@H](N)CCCCN)C(N)=O)C2=O)c2csc(N)n2)C(=O)N1S(=O)(=O)O (some centres unmarked) [AZT-K12] (H-KKKKKKKKKKKKC(X2)-NH2; N-terminus assumed) | 0.06
CC(C)(O/N=C(\C(=O)N[C@@H]1C(=O)N2C(C(=O)[O-])=C(C[n+]3ccccc3)CS[C@H]12)c1csc(N)n1)C(=O)NCCCCCCN1C(=O)CC(SC[C@H](NC(=O)[C@@H](N)CCCCN)C(N)=O)C1=O (some centres unmarked) [CTZ-K1] | 1
C[C@H]1[C@H](NC(=O)/C(=N\OC(C)(C)C(=O)NCCCCCCN2C(=O)CC(SC[C@H](NC(=O)[C@H](CCCCN)NC(=O)[C@H](CCCCN)NC(=O)[C@H](CCCCN)NC(=O)[C@H](CCCNC(=N)N)NC(=O)[C@H](CCCNC(=N)N)NC(=O)[C@@H](N)CCCNC(=N)N)C(N)=O)C2=O)c2csc(N)n2)C(=O)N1S(=O)(=O)O (some centres unmarked) [AZT-R3K3] (H-RRRKKKC(X2)-NH2; N-terminus assumed) | 0.06
C[C@H]1[C@H](NC(=O)/C(=N\OC(C)(C)C(=O)NCCCCCCN2C(=O)CC(SC[C@H](NC(=O)[C@@H](N)CCCCN)C(N)=O)C2=O)c2csc(N)n2)C(=O)N1S(=O)(=O)O (some centres unmarked) [AZT-K1] | 16
C[C@H]1[C@H](NC(=O)/C(=N\OC(C)(C)C(=O)NCCCCCCN2C(=O)CC(SC[C@H](NC(=O)[C@H](CCCNC(=N)N)NC(=O)[C@H](CCCNC(=N)N)NC(=O)[C@H](CCCNC(=N)N)NC(=O)[C@H](CCCNC(=N)N)NC(=O)[C@H](CCCNC(=N)N)NC(=O)[C@H](CCCNC(=N)N)NC(=O)[C@H](CCCNC(=N)N)NC(=O)[C@H](CCCNC(=N)N)NC(=O)[C@@H](N)CCCNC(=N)N)C(N)=O)C2=O)c2csc(N)n2)C(=O)N1S(=O)(=O)O (some centres unmarked) [AZT-R9] | 0.5
C[C@H]1[C@H](NC(=O)/C(=N\OC(C)(C)C(=O)NCCCCCCN2C(=O)CC(SC[C@H](NC(=O)[C@@H](N)CCCNC(=N)N)C(N)=O)C2=O)c2csc(N)n2)C(=O)N1S(=O)(=O)O (some centres unmarked) [AZT-R1] | 16
C[C@H]1[C@H](NC(=O)/C(=N\OC(C)(C)C(=O)NCCCCCCN2C(=O)CC(SC[C@H](NC(=O)[C@H](CCCNC(=N)N)NC(=O)[C@H](CCCNC(=N)N)NC(=O)[C@@H](N)CCCNC(=N)N)C(N)=O)C2=O)c2csc(N)n2)C(=O)N1S(=O)(=O)O (some centres unmarked) [AZT-R3] | 1
CC(C)(O/N=C(\C(=O)N[C@@H]1C(=O)N2C(C(=O)[O-])=C(C[n+]3ccccc3)CS[C@H]12)c1csc(N)n1)C(=O)NCCCCCCN1C(=O)CC(SC[C@H](NC(=O)[C@H](CCCNC(=N)N)NC(=O)CNC(=O)[C@H](CCCNC(=N)N)NC(=O)CNC(=O)[C@H](CCCNC(=N)N)NC(=O)CN)C(N)=O)C1=O (some centres unmarked) [CTZ-(GR)3] (H-GRGRGRC(X1)-NH2; N-terminus assumed) | 0.06
C[C@H]1[C@H](NC(=O)/C(=N\OC(C)(C)C(=O)NCCCCCCN2C(=O)CC(SC[C@H](NC(=O)[C@H](CCCNC(=N)N)NC(=O)CNC(=O)[C@H](CCCNC(=N)N)NC(=O)CNC(=O)[C@H](CCCNC(=N)N)NC(=O)CN)C(N)=O)C2=O)c2csc(N)n2)C(=O)N1S(=O)(=O)O (some centres unmarked) [AZT-(GR)3] (H-GRGRGRC(X2)-NH2; N-terminus assumed) | 1
CC(C)(O/N=C(\C(=O)N[C@@H]1C(=O)N2C(C(=O)[O-])=C(C[n+]3ccccc3)CS[C@H]12)c1csc(N)n1)C(=O)NCCCCCCN1C(=O)CC(SC[C@H](NC(=O)CNC(=O)CNC(=O)CNC(=O)CNC(=O)CNC(=O)CN)C(N)=O)C1=O (some centres unmarked) [CTZ-G6] (H-GGGGGGC(X1)-NH2; N-terminus assumed) | 8
C[C@H]1[C@H](NC(=O)/C(=N\OC(C)(C)C(=O)NCCCCCCN2C(=O)CC(SC[C@H](NC(=O)[C@H](CCCNC(=N)N)NC(=O)[C@H](CCCNC(=N)N)NC(=O)[C@H](CCCNC(=N)N)NC(=O)[C@H](CCCNC(=N)N)NC(=O)[C@H](CCCNC(=N)N)NC(=O)[C@H](CCCNC(=N)N)NC(=O)[C@H](CCCNC(=N)N)NC(=O)[C@H](CCCNC(=N)N)NC(=O)[C@H](CCCNC(=N)N)NC(=O)[C@H](CCCNC(=N)N)NC(=O)[C@H](CCCNC(=N)N)NC(=O)[C@@H](N)CCCNC(=N)N)C(N)=O)C2=O)c2csc(N)n2)C(=O)N1S(=O)(=O)O (some centres unmarked) [AZT-R12] | 1
CC(C)(O/N=C(\C(=O)N[C@@H]1C(=O)N2C(C(=O)[O-])=C(C[n+]3ccccc3)CS[C@H]12)c1csc(N)n1)C(=O)NCCCCCCN1C(=O)CC(SC[C@H](NC(=O)[C@H](CCC(=O)O)NC(=O)[C@H](CCC(=O)O)NC(=O)[C@H](CCC(=O)O)NC(=O)[C@H](CCC(=O)O)NC(=O)[C@H](CCC(=O)O)NC(=O)[C@@H](N)CCC(=O)O)C(N)=O)C1=O (some centres unmarked) [CTZ-E6] | > 64
CC(C)(O/N=C(\C(=O)N[C@@H]1C(=O)N2C(C(=O)[O-])=C(C[n+]3ccccc3)CS[C@H]12)c1csc(N)n1)C(=O)NCCCCCCN1C(=O)CC(SC[C@H](NC(=O)[C@H](CCCCN)NC(=O)[C@H](CCCCN)NC(=O)[C@H](CCCCN)NC(=O)[C@H](CCCCN)NC(=O)[C@H](CCCCN)NC(=O)[C@H](CCCCN)NC(=O)[C@H](CCCCN)NC(=O)[C@H](CCCCN)NC(=O)[C@H](CCCCN)NC(=O)[C@H](CCCCN)NC(=O)[C@H](CCCCN)NC(=O)[C@@H](N)CCCCN)C(N)=O)C1=O (some centres unmarked) [CTZ-K12] (H-KKKKKKKKKKKKC(X1)-NH2) | 0.02
CC(C)(O/N=C(\C(=O)N[C@@H]1C(=O)N2C(C(=O)[O-])=C(C[n+]3ccccc3)CS[C@H]12)c1csc(N)n1)C(=O)NCCCCCCN1C(=O)CC(SC[C@H](NC(=O)[C@H](CCCCN)NC(=O)[C@H](CCCCN)NC(=O)[C@H](CCCCN)NC(=O)[C@H](CCCNC(=N)N)NC(=O)[C@H](CCCNC(=N)N)NC(=O)[C@@H](N)CCCNC(=N)N)C(N)=O)C1=O (some centres unmarked) [CTZ-R3K3] (H-RRRKKKC(X1)-NH2; N-terminus assumed) | 0.008
